Reference: publication PMC3602154 (PLoS ONE, 2013)

How the values were obtained:
Sigma2 = Sigma2 (Homo sapiens, UniProt Q5BJF2); assay: PDSP radioligand binding, Sigma2; settings: for inhibition at 10 µM: quadruplicate, read-out: Sigma2 Primary Screen inhibition of binding
Source text: (§1) [17] and http://pdsp.med.unc.edu/UNC-CH%20Protocol%20Book.pdf.

Alpha1D = molecular target: T1, Alpha1D (Homo sapiens, UniProt P25100); assay: PDSP radioligand binding, adrenoceptor α1D
T1 sequence (P25100 1-572): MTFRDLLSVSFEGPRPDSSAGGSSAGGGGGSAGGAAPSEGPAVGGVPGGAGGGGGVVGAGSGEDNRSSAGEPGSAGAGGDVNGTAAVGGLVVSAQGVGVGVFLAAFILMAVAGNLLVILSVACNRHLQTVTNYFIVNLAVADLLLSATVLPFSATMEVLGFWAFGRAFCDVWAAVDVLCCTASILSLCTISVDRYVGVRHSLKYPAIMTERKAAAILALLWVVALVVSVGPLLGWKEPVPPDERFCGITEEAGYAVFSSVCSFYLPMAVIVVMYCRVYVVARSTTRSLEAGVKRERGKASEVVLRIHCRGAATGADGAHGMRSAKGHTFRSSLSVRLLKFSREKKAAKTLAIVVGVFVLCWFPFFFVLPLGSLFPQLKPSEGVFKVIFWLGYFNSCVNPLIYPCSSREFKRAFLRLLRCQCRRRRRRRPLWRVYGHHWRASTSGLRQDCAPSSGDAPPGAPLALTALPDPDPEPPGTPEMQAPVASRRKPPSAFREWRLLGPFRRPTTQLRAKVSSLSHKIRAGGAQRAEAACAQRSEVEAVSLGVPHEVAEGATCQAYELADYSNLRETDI
Source text: as §1

[1] = molecular target: SERT (serotonin transporter) (Homo sapiens, UniProt P31645); assay: biochemical; type: binding; settings: for Ki: Table 2
Source text: as §1

Sigma2, sequence (Q5BJF2 whole entry): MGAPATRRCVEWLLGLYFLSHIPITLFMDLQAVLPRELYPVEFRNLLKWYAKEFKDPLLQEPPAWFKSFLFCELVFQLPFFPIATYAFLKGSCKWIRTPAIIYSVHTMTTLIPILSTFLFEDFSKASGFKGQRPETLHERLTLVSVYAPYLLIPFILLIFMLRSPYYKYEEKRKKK
SERT (serotonin transporter), sequence (P31645 whole entry, species assumed): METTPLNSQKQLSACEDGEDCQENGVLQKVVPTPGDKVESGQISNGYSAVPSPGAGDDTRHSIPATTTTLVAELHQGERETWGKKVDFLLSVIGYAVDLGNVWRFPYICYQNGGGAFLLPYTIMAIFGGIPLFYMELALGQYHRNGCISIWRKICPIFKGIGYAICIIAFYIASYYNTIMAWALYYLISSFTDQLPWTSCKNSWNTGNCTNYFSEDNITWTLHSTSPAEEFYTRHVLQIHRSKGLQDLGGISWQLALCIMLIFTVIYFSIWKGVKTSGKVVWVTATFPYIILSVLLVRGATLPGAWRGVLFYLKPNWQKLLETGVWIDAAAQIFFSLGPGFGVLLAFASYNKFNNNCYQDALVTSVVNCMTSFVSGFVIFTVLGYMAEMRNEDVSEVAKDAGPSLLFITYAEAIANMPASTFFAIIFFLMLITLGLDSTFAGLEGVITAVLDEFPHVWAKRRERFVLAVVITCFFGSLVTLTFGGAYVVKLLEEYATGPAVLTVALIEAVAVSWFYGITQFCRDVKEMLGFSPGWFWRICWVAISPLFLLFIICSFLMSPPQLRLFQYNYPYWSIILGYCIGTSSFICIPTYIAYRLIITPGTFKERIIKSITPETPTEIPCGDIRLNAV

With `CCNC1(c2cccc(OC)c2)CCCCC1=O` (racemic) [Methoxetamine, (RS)-2-(ethylamino)-2-(3-methoxyphenyl)cyclohexanone] the inhibition at 10 µM (Sigma2) was < 50%, the Ki (Sigma2; Ki Sigma 2, Table S1, unit inferred) was > 10 µM and the Ki (Alpha1D) was > 10 µM.

In the case of `COc1cccc(C2(N3CCCCC3)CCCCC2)c1` [3-MeO-PCP, 1-[1-(3-methoxyphenyl)cyclohexyl]piperidine], the inhibition at 10 µM (Sigma2) is reported as < 50%, the Ki [1] is reported as 0.216 µM and the Ki (Alpha1D) is reported as > 10 µM.

In the case of `COc1ccc(C2(N3CCCCC3)CCCCC2)cc1` [4-MeO-PCP, 1-[1-(4-methoxyphenyl)cyclohexyl]piperidine], the “affinity for the serotonin transporter (SERT), in words” value [1] is reported as “submicromolar affinities”, the Ki [1] is reported as 0.844 µM and the Ki (Alpha1D) is reported as > 10 µM.
